Measurements reported in ChEMBL document CHEMBL1201862, “PubChem BioAssay data set” (2004).
Activity calls are given as the source filed them.

Experiments:
Vero [1] = experiment: cells; format: functional, cell-based; settings: Chlorocebus sabaeus
Cytochrome P450 3A4 = Cytochrome P450 3A4 (Homo sapiens, UniProt P08684);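 also: CYP3A4 tested as one member of a cytochrome P450 panel screen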
H4 = experiment: Luminescence Cell-Based Dose Response HTS to Identify Activators of 5'UTR Stem-Loop Driven Prion Protein mRNA Translation in H4 Neuroglioblastoma Cells. [Related pubchem assays: 1829 (Project Summary), 1814 (Primary HTS)]; format: functional; settings: Homo sapiens
Protein skinhead-1 = target: T1, Protein skinhead-1 (Caenorhabditis elegans, UniProt P34707); format: functional
T1 sequence (P34707 whole entry): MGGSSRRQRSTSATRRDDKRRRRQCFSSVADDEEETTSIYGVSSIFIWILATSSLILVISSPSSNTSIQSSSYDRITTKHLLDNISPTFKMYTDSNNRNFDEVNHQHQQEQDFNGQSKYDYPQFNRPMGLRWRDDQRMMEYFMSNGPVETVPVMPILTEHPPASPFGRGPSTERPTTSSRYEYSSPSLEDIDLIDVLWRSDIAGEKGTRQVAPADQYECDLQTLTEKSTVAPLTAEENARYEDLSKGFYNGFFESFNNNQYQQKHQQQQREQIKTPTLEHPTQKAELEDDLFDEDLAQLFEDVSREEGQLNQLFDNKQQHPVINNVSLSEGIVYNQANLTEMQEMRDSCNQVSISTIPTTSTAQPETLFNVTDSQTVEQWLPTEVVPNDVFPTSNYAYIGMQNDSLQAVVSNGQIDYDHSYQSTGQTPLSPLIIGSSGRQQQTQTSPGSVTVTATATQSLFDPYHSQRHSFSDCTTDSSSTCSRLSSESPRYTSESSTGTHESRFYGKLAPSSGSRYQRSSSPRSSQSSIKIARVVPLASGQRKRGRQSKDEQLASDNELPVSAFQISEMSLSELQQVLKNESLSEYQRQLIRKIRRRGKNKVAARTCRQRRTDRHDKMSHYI

Cytochrome P450 2C9 = Cytochrome P450 2C9 (Homo sapiens, UniProt P11712)
Sequence of Cytochrome P450 2C9 (P11712 whole entry): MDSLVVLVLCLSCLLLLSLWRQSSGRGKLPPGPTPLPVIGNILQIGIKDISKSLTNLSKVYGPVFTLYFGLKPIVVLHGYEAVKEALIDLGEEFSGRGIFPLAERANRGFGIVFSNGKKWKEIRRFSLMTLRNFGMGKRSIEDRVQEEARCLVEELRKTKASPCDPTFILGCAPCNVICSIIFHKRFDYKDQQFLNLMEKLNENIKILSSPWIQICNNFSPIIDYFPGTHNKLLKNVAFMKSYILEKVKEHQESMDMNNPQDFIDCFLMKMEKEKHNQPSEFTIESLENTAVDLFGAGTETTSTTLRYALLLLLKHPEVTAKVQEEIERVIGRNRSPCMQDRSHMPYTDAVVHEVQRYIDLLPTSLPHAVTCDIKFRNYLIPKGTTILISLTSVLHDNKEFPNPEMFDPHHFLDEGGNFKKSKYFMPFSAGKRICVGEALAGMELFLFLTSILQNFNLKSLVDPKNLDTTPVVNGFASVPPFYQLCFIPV

Vero [2] = experiment: cells; format: functional; settings: Chlorocebus sabaeus
[3] = target: Nucleotide-binding oligomerization domain-containing protein 2 (Homo sapiens, UniProt Q9HC29); experiment: NOD2 signaling inhibitors, cell-based, luminescence, uHTS, HEK293 (AID 1566); format: functional
Sequence of Nucleotide-binding oligomerization domain-containing protein 2 (Q9HC29 whole entry, the tested form may be a part): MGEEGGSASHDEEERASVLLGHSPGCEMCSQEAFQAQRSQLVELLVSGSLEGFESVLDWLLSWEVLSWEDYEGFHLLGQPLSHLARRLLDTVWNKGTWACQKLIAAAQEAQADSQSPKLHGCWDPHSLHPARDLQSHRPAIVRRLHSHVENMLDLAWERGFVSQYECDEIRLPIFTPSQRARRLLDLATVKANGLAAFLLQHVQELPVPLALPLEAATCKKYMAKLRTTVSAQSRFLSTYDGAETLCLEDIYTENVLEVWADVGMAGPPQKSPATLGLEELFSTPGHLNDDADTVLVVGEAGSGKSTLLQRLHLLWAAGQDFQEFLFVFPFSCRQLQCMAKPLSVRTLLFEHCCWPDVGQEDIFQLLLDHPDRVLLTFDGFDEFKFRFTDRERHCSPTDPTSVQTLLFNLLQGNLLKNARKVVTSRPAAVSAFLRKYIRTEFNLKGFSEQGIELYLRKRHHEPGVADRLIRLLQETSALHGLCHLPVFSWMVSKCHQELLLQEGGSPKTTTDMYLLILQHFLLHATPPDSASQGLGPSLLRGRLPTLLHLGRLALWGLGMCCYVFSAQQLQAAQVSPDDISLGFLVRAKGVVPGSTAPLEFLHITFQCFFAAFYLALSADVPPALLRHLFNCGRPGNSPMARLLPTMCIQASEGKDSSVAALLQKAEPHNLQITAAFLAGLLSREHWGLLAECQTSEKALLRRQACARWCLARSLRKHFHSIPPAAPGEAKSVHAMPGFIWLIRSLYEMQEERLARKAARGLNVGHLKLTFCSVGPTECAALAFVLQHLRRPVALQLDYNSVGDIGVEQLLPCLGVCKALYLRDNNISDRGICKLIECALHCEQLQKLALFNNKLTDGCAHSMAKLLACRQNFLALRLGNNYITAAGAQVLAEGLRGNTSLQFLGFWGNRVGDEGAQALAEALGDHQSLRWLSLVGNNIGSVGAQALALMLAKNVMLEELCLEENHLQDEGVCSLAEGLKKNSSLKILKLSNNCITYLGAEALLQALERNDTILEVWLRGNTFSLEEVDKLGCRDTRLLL

HEK293 [4] = experiment: NOD1 signaling inhibitors, primary screen, cell-based, luminescence, uHTS (AID 1578); format: functional; settings: Homo sapiens
HEK293 [5] = experiment: cells; format: functional, cell-based; settings: Homo sapiens
HEK293 [6] = experiment: cells; format: functional, cell-based; settings: Homo sapiens; remark: listed apart in the source
HEK293 [7] = experiment: cells; format: functional, cell-based; settings: Homo sapiens; remark: listed apart in the source
HEK293 [8] = experiment: NOD2 signaling inhibitors in MDP-stimulated cells, cell-based, uHTS, luminescence (AID 2001); format: functional; settings: Homo sapiens
[9] = cytotoxicity in HEK-293T cells, dose response, cytotoxicity control for BCR NF-kB inhibitor project, luminescence, B-cell screen hits (AID 489021); format: functional, cell-based;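 also: HEK-293T cells carrying an NF-kB luciferase reporter; cells exposed to compound for about 14 hours before viability readout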
[10] = target: T2, Microphthalmia-associated transcription factor (Homo sapiens, UniProt O75030); experiment: TRPM1 promoter luciferase signal decrease, dose response, MITF inhibitor project, cell-based, SK-MEL-5, cherry-picked, set 3 (AID 493073); format: functional
T2 sequence (O75030 whole entry): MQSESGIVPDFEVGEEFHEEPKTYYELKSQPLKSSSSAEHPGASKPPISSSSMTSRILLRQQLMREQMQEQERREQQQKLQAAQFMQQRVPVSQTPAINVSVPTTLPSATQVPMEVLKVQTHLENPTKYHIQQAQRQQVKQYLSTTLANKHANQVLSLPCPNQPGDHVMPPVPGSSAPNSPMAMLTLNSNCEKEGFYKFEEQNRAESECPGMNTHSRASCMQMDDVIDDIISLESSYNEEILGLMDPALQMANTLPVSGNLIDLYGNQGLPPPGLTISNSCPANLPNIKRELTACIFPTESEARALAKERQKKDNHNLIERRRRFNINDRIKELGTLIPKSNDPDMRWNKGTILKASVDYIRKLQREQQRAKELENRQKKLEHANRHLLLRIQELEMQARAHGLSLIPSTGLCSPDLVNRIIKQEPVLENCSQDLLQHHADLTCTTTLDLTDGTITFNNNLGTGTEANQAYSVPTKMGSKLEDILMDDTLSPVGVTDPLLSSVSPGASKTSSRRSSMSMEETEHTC

[11] = Luminescence Cell-Based Dose Retest to Confirm Inhibitors of Cancer Stem Cells. [Related pubchem assays (depositor defined):AID2717, AID2721]; format: functional; settings: Homo sapiens
INS1 = experiment: beta cell apoptosis inhibitors, cytokine rescue, dose response, luminescence, retest (AID 449756); format: functional, cell-based; settings: Rattus norvegicus;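 also: cell death triggered by IL-1 beta plus TNF-alpha plus IFN-gamma mixture; protective hits raise ATP signal compared with cytokine alone wells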
[12] = test system: Streptococcus sp. 'group A'; experiment: growth inhibition of control SK(-) GAS strain, dose response, counter-screen for streptokinase expression inhibitor project, luminescence, kanamycin, BacTiterGlo, confirmation (AID 1900); format: functional, organism-based
Streptococcus = experiment: Group A Streptococcus viability loss, dose response, counter-screen for streptokinase expression inhibitor project, luminescence, BacTiterGlo (AID 1915); format: functional, organism-based;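 also: potency for reduction of bacterial viability or growth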
[13] = insulin promoter down-regulators in MIN6 cells, imaging, high-content screening, mouse beta cells (AID 1628); format: functional
cells [14] = format: functional, cell-based
[15] = cytotoxicity in MIN6 insulinoma cells, dose response, cytotoxicity control, cell-based, mouse insulinoma (AID 2122); format: functional;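 also: confirmatory high-throughput counterscreen run to flag cytotoxic compounds; mouse MIN-6 beta cells carrying an insulin promoter eGFP reporter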
[16] = cytotoxicity toward NIH3T3 fibroblasts, dose response, counter-screen, cell-based, ATP luminescence, mouse fibroblasts (AID 2010); format: functional;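 also: cells exposed to compound for about 90 hours before reading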
[17] = inhibitors of intracellular T. cruzi replication, confirmation, NIH3T3 host cells, beta-gal luminescence (AID 2044); format: functional, cell-based;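 also: intracellular parasites grown in NIH/3T3 mouse fibroblasts as host cells; luminescent beta-galactosidase reporter signal from transgenic T. cruzi replicating inside host cells; inhibitors lower the luminescence signal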
cells [18] = format: functional, cell-based; remark: listed apart in the source

Sequence of Cytochrome P450 3A4 (P08684 whole entry): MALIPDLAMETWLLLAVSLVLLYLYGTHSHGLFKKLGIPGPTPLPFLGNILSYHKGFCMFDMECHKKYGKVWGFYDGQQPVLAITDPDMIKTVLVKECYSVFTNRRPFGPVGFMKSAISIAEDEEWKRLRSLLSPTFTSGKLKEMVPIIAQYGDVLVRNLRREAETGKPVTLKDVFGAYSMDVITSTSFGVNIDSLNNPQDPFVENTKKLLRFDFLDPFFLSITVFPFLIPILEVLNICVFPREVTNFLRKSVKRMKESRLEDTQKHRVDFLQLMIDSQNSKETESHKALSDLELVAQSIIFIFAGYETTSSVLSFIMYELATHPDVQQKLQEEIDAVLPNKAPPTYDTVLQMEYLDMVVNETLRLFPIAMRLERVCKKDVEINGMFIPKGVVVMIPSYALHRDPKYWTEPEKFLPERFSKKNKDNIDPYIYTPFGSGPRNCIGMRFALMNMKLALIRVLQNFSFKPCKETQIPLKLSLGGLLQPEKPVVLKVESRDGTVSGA

In the case of `C=CCn1c(SCC(=O)c2cccs2)nc2sc(C)c(C)c2c1=O`, the IC50 (Vero [1]) is reported as 24.8 µM (active).

With `COC(=O)N1CCC2(CC1)CCN(c1cccc(-c3ccccc3)c1)CC2` the AC50 (Cytochrome P450 3A4) was “inconclusive”.

In the case of `O=[N+]([O-])c1ccc2nc(-c3ccc(Cl)cc3)n(OCc3ccccc3)c2c1`, the EC50 (H4) is reported as 0.973 µM (active), the IC50 (Protein skinhead-1) is reported as > 100 µM (inactive) and the AC50 (Cytochrome P450 2C9) is reported as 22.4 µM (inconclusive). The AC50 (Cytochrome P450 3A4) was “inconclusive”.

In the case of `Cc1ccccc1C(=O)Nc1ccc2c(c1)CCCN2C(=O)c1cccs1`, the CC50 (Vero [2]) is reported as > 25 µM (active) and the IC50 (Vero [1]) is reported as 7.77 µM (active).

For `COc1ccc(C)cc1NC(=O)c1sc2ncnc(N3CCN(c4ccccn4)CC3)c2c1C`, the EC50 [3] was > 20 µM (inactive), the EC50 (HEK293 [4]) was > 20 µM (inactive) and the IC50 (HEK293 [5]) was > 20 µM (inactive). The IC50 (HEK293 [6]) was > 20 µM (inactive), the IC50 (HEK293 [7]) was > 20 µM (inactive) and the IC50 (HEK293 [8]) was > 20 µM (inactive).

With `Cc1ccc(/C=C/C(=O)c2c(C)nc3ccccn23)cc1` the CC50 (Vero [2]) was 17.6 µM (active) and the IC50 (Vero [1]) was > 25 µM (active).

In the case of `COc1ccc(/C=C2\SC(=S)N(CCCC(=O)NNC(=O)c3ccccc3O)C2=O)cc1`, the EC50 [3] is reported as > 20 µM (inactive), the IC50 [9] is reported as > 80 µM (inactive) and the EC50 (HEK293 [4]) is reported as 8.29 µM (active). For the same compound, the IC50 (HEK293 [5]) was > 20 µM (inactive), the IC50 (HEK293 [6]) was > 20 µM (inactive) and the AC50 [10] was 1.38 µM (active). For the same compound, the IC50 (HEK293 [7]) was 5.39 µM (active) and the IC50 (HEK293 [8]) was 5.62 µM (active).

For `O=C(N/N=C/c1cc(Br)ccc1O)C(=O)Nc1ccccc1OC(F)(F)C(F)F`, the AC50 [11] was 1.62 µM (active), the AC50 (INS1) was 2.17 µM (active) and the EC50 [12] was 0.866 µM (active). The EC50 (Streptococcus) was 1.82 µM (active), the IC50 [13] was 1.93 µM (active) and the EC50 (cells [14]) was 10.9 µM (active). For the same compound, the IC50 [15] was 2.22 µM (active), the EC50 [16] was 8.61 µM (active) and the EC50 [17] was 0.572 µM (active). For the same compound, the EC50 (cells [18]) was > 350 µM (not active).
